Data: patent US20070196885A1, “Method of determining carbonic anhydrase i activity” (YAMASA CORPORATION, priority 2004, published 2007)

Tests used:
Type in all cases: biochemical
human CAI [1] = biological target: T1, human CAI (Homo sapiens, UniProt P00915); assay: Acetazolamide-inhibited hydrolase activity (Example 5); settings: for Absorbance change (CA-intrinsic, inhibited by acetazolamide, 405 nm): 25-μg/mL human CAI solution, 3 mM acetazolamide solution, pH 8, room temperature, five minutes; for reactivity of substrate with CAI relative to reactivity with CAII: used in combination with acetazolamide (Example 5, Table 3)
T1 sequence (P00915 whole entry): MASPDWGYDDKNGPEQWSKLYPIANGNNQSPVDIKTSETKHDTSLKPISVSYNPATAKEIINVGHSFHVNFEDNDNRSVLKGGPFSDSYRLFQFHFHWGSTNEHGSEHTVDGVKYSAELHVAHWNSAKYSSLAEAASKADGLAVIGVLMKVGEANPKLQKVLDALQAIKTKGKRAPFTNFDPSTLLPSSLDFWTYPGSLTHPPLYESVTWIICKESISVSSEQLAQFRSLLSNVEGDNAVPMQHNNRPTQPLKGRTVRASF
Description: (§1) o-Nitrophenyl acetate was employed as a substrate having higher reactivity with CAI than with CAII. As an inhibitor, acetazolamide, which inhibits both CAI and CAII, was used in combination. A reference substrate was produced from p-nitrophenyl acetate—a substrate having low specificity to CAI (reactive with both CAI and CAII)—and the above acetazolamide serving as a CA inhibitor in combination.
(§2) • (1) By use of purified water, a 25-μg/mL human CAI solution and a 5-μg/mL human CAII solution were prepared. • (2) A 3 mM acetazolamide solution was prepared by use of a 30 mM dimethyl malonate buffer (pH 8). Before dissolution in the buffer, acetazolamide had been dissolved in advance in dimethyl sulfoxide (DMSO). Thus, the solution has a DMSO content of 0.15% (v/v). • (3) By use of purified water, a 6 mM o-nitrophenyl acetate solution and a 3 mM p-nitrophenyl acetate solution were prepared. Before dissolution in water, each substrate had been dissolved in advance in acetone. […] Specifically, solutions of (1), (2), and (3) (each 50 μL) were mixed, and the mixture was allowed to react at room temperature for five minutes. Absorbance of the mixture was measured at 405 nm before and after reaction, and change in absorbance (ΔA) was calculated.
(§3) In order to prepare a sample reference and an inhibitor reference, only purified water and 0.15% (v/v) DMSO-containing 30 mM dimethyl malonate buffer were used as reference solutions (1) and (2), respectively. Each of the references was allowed to react in the same manner as above, and absorbance of the mixture was measured, whereby change in absorbance of the reference was determined.
(§4) <Calculation> Change in CA-intrinsic absorbance=[ΔA1−ΔA3]−[ΔA2−ΔA4]; wherein • ΔA1 represents change in absorbance of a sample consisting of solution (1), reference solution (2), and solution (3); • ΔA2 represents change in absorbance of a sample consisting of solutions (1), (2), and (3); • ΔA3 represents change in absorbance of a sample consisting of reference solutions (1) and (2), and solution (3); and • ΔA4 represents change in absorbance of a sample consisting of reference solution (1) and solutions (2) and (3). <Results>

human CAII [2] = biological target: T2, human CAII (Homo sapiens, UniProt P00918); assay: as above; settings: 5-μg/mL human CAII solution, 3 mM acetazolamide solution, pH 8, room temperature, five minutes
Description: as §1, §2, §3, §4

human CAI [3] = biological target: T1, human CAI; assay: Iodide-inhibited hydrolase activity, p-nitrophenyl acetate (Example 7); settings: 25-μg/mL human CAI solution; 3 mM p-nitrophenyl acetate solution; 3 mM potassium iodide solution; pH 8, room temperature, five minutes
Protocol: (§5) p-Nitrophenyl acetate serving as a substrate reacting with both CAI and CAII and an iodide (I^−) serving as a CA inhibitor inhibiting CAI more potently than CAII were employed in combination.
(§6) • (1) By use of purified water, a 25-μg/mL human CAI solution and a 5-μg/mL human CAII solution were prepared. • (2) A 3 mM potassium iodide solution was prepared by use of a 30 mM dimethyl malonate buffer (pH 8). • (3) By use of purified water, a 3 mM p-nitrophenyl acetate solution was prepared. Before dissolution in water, the substrate had been dissolved in advance in acetone. […] Specifically, solutions of (1), (2), and (3) (each 50 μL) were mixed, and the mixture was allowed to react at room temperature for five minutes. Absorbance of the mixture was measured at 405 nm before and after reaction, and change in absorbance (ΔA) was calculated.
as §3, with “water and 30 mM” for “water and 0.15% (v/v) DMSO-containing 30 mM”, “manner as employed above, and” for “manner as above, and”, “was determined. […]” for “was determined.”

human CAII [4] = biological target: T2, human CAII; assay: as above; settings: 5-μg/mL human CAII solution; 3 mM p-nitrophenyl acetate solution; 3 mM potassium iodide solution; pH 8, room temperature, five minutes
Protocol: as §5, §6
as §3, with “water and 30 mM” for “water and 0.15% (v/v) DMSO-containing 30 mM”, “manner as employed above, and” for “manner as above, and”, “was determined. […]” for “was determined.”

human CAI [5] = biological target: T1, human CAI; assay: Hydrolase activity with AEBSF and formaldehyde (Example 3); settings: 25-μg/mL human CAI solution; 9 mM substrate solution; 0.1 mM AEBSF and 50 mM formaldehyde; pH 8, room temperature, five minutes
Protocol: (§7) o-Nitrophenyl acetate was employed as a substrate having higher reactivity with CAI than with CAII. In addition, 4-(2-aminoethyl)benzenesulfony fluoride (AEBSF) serving as an inhibitor inhibiting a hydrolase other than CA, and formaldehyde serving as an enhancer of the inhibitor were employed.
(§8) • (1) By use of purified water, a 25-μg/mL human CAI solution and a 5-μg/mL human CAII solution were prepared. • (2) A 30 mM dimethyl malonate buffer (pH: 8) including 0.1 mM AEBSF, and 50 mM formaldehyde were provided. • (3) By use of purified water, a 9 mM o-nitrophenyl acetate solution was prepared. Before dissolution in water, the substrate had been dissolved in advance in acetone. […] Absorbance of the mixture was measured at 405 nm before and after reaction, and change in absorbance (ΔA) was calculated.
(§9) In order to prepare a sample reference, only purified water was used as solution (1). The reference was allowed to react in the same manner as above, and absorbance of the mixture was measured at 405 nm before and after reaction, whereby change in absorbance of the reference was determined. The change in absorbance intrinsic to CA was calculated by the following equation:
(§10) <Calculation> Change in CA-intrinsic absorbance=ΔA1−ΔA3; wherein
(§11) ΔA1 represents change in absorbance of a sample consisting of solution (1), solution (2), and solution (3), and […]

human CAII [6] = biological target: T2, human CAII; assay: as above; settings: 5-μg/mL human CAII solution; 9 mM substrate solution; 0.1 mM AEBSF and 50 mM formaldehyde; pH 8, room temperature, five minutes
Protocol: as §7, §8, §9, §10, §11

human CAI [7] = biological target: T1, human CAI; assay: Hydrolase activity, o-nitrophenyl acetate substrate, no inhibitor (Example 1); settings: 25-μg/mL human CAI solution, 9 mM substrate solution, pH 8, room temperature, five minutes
Protocol: (§12) o-Nitrophenyl acetate was employed as a substrate having higher reactivity with CAI than with CAII, and no inhibitor was used.
as §6, with “A” for “A 3 mM potassium iodide solution was prepared by use of a”, “buffer (pH: 8) was provided.” for “buffer (pH 8).”, “a 9” for “a 3”, “mM o-nitrophenyl” for “mM p-nitrophenyl”
as §9, §10
(§13) ΔA1 represents change in absorbance of a sample consisting of solutions (1), (2), and (3), and
(§14) ΔA3 represents change in absorbance of a sample consisting of reference solution (1) and solutions (2) and (3).

human CAII [8] = biological target: T2, human CAII; assay: as above; settings: 5-μg/mL human CAII solution, 9 mM substrate solution, pH 8, room temperature, five minutes
Protocol: as §12
as §6, with “A” for “A 3 mM potassium iodide solution was prepared by use of a”, “buffer (pH: 8) was provided.” for “buffer (pH 8).”, “a 9” for “a 3”, “mM o-nitrophenyl” for “mM p-nitrophenyl”
as §9, §10, §13, §14

human CAI [9] = biological target: T1, human CAI; assay: Iodide-inhibited hydrolase activity, o-nitrophenyl acetate (Example 9); settings: 25-μg/mL human CAI solution; 9 mM o-nitrophenyl acetate solution; 300 mM potassium iodide solution; pH 8, room temperature, five minutes
Protocol: (§15) o-Nitrophenyl acetate was used as a substrate having higher reactivity with CAI than with CAII, and in combination, an iodide ion (I^−) was used as a CA inhibitor inhibiting CAI more potently than CAII.
as §8, with “(2) A 300 mM potassium iodide solution was prepared by use of a 30 mM” for “(2) A 30 mM”, “malonate buffer (pH 8). • (3)” for “malonate buffer (pH: 8) including 0.1 mM AEBSF, and 50 mM formaldehyde were provided. • (3)”
as §3, with “water and 30 mM” for “water and 0.15% (v/v) DMSO-containing 30 mM”, “manner as employed above, and” for “manner as above, and”, “was determined. […]” for “was determined.”

human CAII [10] = biological target: T2, human CAII; assay: as above; settings: 5-μg/mL human CAII solution; 9 mM o-nitrophenyl acetate solution; 300 mM potassium iodide solution; pH 8, room temperature, five minutes
Protocol: as §15
as §8, with “(2) A 300 mM potassium iodide solution was prepared by use of a 30 mM” for “(2) A 30 mM”, “malonate buffer (pH 8). • (3)” for “malonate buffer (pH: 8) including 0.1 mM AEBSF, and 50 mM formaldehyde were provided. • (3)”
as §3, with “water and 30 mM” for “water and 0.15% (v/v) DMSO-containing 30 mM”, “manner as employed above, and” for “manner as above, and”, “was determined. […]” for “was determined.”

[11] = 3 mM p-nitrophenyl acetate solution
[12] = 6 mM o-nitrophenyl acetate solution

Row | SMILES | Absorbance change (CA-intrinsic, inhibited by acetazolamide, 405 nm) (human CAI [1]; [11]) | reactivity of substrate with CAI relative to reactivity with CAII (human CAI [1]) | Absorbance change (CA-intrinsic, inhibited by acetazolamide, 405 nm) (human CAII [2]; [11]) | Absorbance change (CA-intrinsic, inhibited by iodide, 405 nm) (human CAI [3]) | Absorbance change (CA-intrinsic, inhibited by iodide, 405 nm) (human CAII [4]) | Absorbance change (CA-intrinsic, 405 nm) (human CAI [5]) | Absorbance change (CA-intrinsic, 405 nm) (human CAII [6]) | Absorbance change (CA-intrinsic, inhibited by acetazolamide, 405 nm) (human CAI [1]; [12]) | Absorbance change (CA-intrinsic, inhibited by acetazolamide, 405 nm) (human CAII [2]; [12]) | Absorbance change (CA-intrinsic, 405 nm) (human CAI [7]) | Absorbance change (CA-intrinsic, 405 nm) (human CAII [8]) | Absorbance change (CA-intrinsic, inhibited by iodide, 405 nm) (human CAI [9]) | Absorbance change (CA-intrinsic, inhibited by iodide, 405 nm) (human CAII [10])
1 | CC(=O)Oc1ccc([N+](=O)[O-])cc1 [p-Nitrophenyl acetate, p-nitrophenyl acetate] | 0.283 | lower than twice the reactivity with CAII | 0.162 | 0.052 | 0.005 | – | – | – | – | – | – | – | –
2 | CC(=O)Oc1ccccc1[N+](=O)[O-] [o-Nitrophenyl acetate, o-nitrophenyl acetate] | – | higher than twice the reactivity with CAII | – | – | – | 0.329 | 0.008 | 0.285 | 0.004 | 0.511 | 0.011 | 0.504 | 0.009
